Experimental data from patent US12331054B2, “Perk inhibiting imidazolopyrazine compounds” (HiberCell, Inc., priority 2019, dated 2025).

Tests used:
[1] = tested on: eIF2α in HEK293-EGFP-eIF2α cells; assay: PERK Cellular Assay (HEK293-EGFP-eIF2α cells, tunicamycin-induced ER stress, TR-FRET); type: cell-based; conditions: tunicamycin 2 hours
Outline: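 Cells pre-incubated with inhibitor 30 min at 37 °C, then ER stress induced with […] tunicamycin for 2 h. TR-FRET read on lysates; ratio normalized to DMSO control as percent inhibition over a 10-point, 3-fold dilution series; IC50 from 4-parameter logistic fit.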

[2] = biological target: Recombinant human EIF2AK3 (PERK) catalytic domain (amino acids 536-1116) (Homo sapiens (Human), UniProt Q9NZJ5); assay: PERK In Vitro Activity Assay (isolated), TR-FRET kinase assay; conditions: isolated PERK enzyme, 1.5 μM ATP, read-out: Biochemical IC50
Recombinant human EIF2AK3 (PERK) catalytic domain (amino acids 536-1116), sequence (Q9NZJ5 536-1116): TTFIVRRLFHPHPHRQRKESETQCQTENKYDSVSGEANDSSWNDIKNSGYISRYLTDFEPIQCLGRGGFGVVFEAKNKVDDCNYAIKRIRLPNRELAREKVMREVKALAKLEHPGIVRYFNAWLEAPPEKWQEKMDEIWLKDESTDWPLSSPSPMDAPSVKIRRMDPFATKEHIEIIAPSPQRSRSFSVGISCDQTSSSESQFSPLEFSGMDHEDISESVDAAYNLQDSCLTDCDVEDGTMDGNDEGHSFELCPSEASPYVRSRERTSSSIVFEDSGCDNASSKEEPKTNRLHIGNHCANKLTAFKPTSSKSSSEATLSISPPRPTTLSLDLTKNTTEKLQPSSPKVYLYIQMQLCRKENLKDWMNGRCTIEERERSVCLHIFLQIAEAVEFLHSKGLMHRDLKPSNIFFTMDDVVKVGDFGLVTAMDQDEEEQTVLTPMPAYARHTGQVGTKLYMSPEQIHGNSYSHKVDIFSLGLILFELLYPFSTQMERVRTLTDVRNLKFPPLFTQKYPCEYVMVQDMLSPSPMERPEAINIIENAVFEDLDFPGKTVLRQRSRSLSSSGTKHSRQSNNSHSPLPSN
Outline: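 Recombinant PERK catalytic domain was incubated with 100–200 nM GFP-eIF2a substrate in 50 mM HEPES pH 7.5, 10 mM MgCl2, 1.0 mM EGTA and 0.01% Brij-35 for 45 min at room temperature. After a 10 mM EDTA stop, 2 nM Tb-anti-phospho-eIF2a was added for 90 min, and IC50 was fitted from TR-FRET ratios by 4-parameter logistic regression.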

Compound | IC50 [1] | IC50 [2] | IC50 ([1]; 2 h)
[2H]C([2H])([2H])c1nc(-c2ccc(NC(=O)C(O)c3cc(F)cc(C(F)(F)F)c3)c(F)c2F)c2c(N)ncc(C)n12 (centres unmarked) [Example 161, N-[4-[8-amino-5-methyl-3-(trideuteriomethyl)imidazo[1,5-a]pyrazin-1-yl]-2,3-difluoro-phenyl]-2-[3-fluoro-5-(trifluoromethyl)phenyl]-2-hydroxy-acetamide] | 101 to 250 nM | 1 to 25 nM | 
CCc1cc(NC(=O)C(O)c2cccc(F)c2)ccc1-c1nc(C)n2c(C)cnc(N)c12 (centres unmarked) [Example 66, N-(4-(8-amino-3,5-dimethylimidazo [1,5-a]pyrazin-1-yl)-3-ethylphenyl)-2-(3-fluorophenyl)-2-hydroxy-acetamide] | 26 to 50 nM | 1 to 25 nM | 
[2H]C([2H])([2H])c1nc(-c2ccc(NC(=O)C(O)c3cccc(C)c3)cc2F)c2c(N)ncc(C)n12 (centres unmarked) [Example 90, N-[4-[8-amino-5-methyl-3-(trideuteriomethyl)imidazo[1,5-a]pyrazin-1-yl]-3-fluoro-phenyl]-2-hydroxy-2-(m-tolyl)acetamide] |  | 1 to 25 nM | 26 to 50 nM
[2H]C([2H])([2H])c1nc(-c2ccc(NC(=O)C(O)c3cccc(F)c3)c(F)c2F)c2c(N)ncc(C)n12 (centres unmarked) [Example 132, N-[4-[8-amino-5-methyl-3-(trideuteriomethyl)imidazo[1,5-a]pyrazin-1-yl]-2,3-difluoro-phenyl]-2-(3-fluoro-phenyl)-2-hydroxy-acetamide] | 1 to 25 nM | 1 to 25 nM | 
[2H]C([2H])([2H])c1nc(-c2ccc(NC(=O)C(O)c3cccc(Cl)c3)c(F)c2F)c2c(N)ncc(C)n12 (centres unmarked) [Example 139, N-[4-[8-amino-5-methyl-3-(trideuteriomethyl)imidazo[1,5-a]pyrazin-1-yl]-2,3-difluoro-phenyl]-2-(3-chlorophenyl)-2-hydroxy-acetamide] | 101 to 250 nM | 1 to 25 nM | 
[2H]C([2H])([2H])c1nc(-c2ccc(NC(=O)C(O)c3cc(F)cc(C(F)(F)F)c3)cc2F)c2c(N)ncc(C(F)(F)F)n12 (centres unmarked) [Example 113, N-[4-[8-amino-3-(trideuteriomethyl)-5-(trifluoromethyl)imidazo[1,5-a]pyrazin-1-yl]-3-fluoro-phenyl]-2-[3-fluoro-5-(trifluoromethyl)phenyl]-2-hydroxy-acetamide] | 101 to 250 nM | 51 to 100 nM | 
Cc1cnc(N)c2c(-c3ccc(NC(=O)C(O)c4cccc(F)c4)cc3)nc(C)n12 (centres unmarked) [Example 68, N-(4-(8-amino-3,5-dimethylimidazo [1,5-a]pyrazin-1-yl)phenyl)-2-(3-fluorophenyl)-2-hydroxyacetamide] | 101 to 250 nM | 1 to 25 nM | 
[2H]C([2H])([2H])c1nc(-c2ccc(NC(=O)C(O)c3cccc(Cl)c3)cc2C)c2c(N)ncc(Cl)n12 (centres unmarked) [Example 42, N-[4-[8-amino-5-chloro-3-(trideuteriomethyl)imidazo[1,5-a]pyrazin-1-yl]-3-methyl-phenyl]-2-(3-chlorophenyl)-2-hydroxy-acetamide] | 1 to 25 nM | 1 to 25 nM | 
[2H]C([2H])([2H])c1nc(-c2ccc(NC(=O)C(O)c3cc(F)cc(C(F)(F)F)c3)c(F)c2F)c2c(N)ncc(C(F)(F)F)n12 (centres unmarked) [Example 162, N-[4-[8-amino-3-(trideuteriomethyl)-5-(trifluoromethyl)imidazo[1,5-a]pyrazin-1-yl]-2,3-difluoro-phenyl]-2-[3-fluoro-5-(trifluoromethyl)phenyl]-2-hydroxy-acetamide] | 1 to 25 nM | 1 to 25 nM | 
[2H]C([2H])([2H])c1nc(-c2ccc(NC(=O)C(O)c3cc(F)cc(C(F)(F)F)c3)cc2F)c2c(N)nc(C)cn12 (centres unmarked) [Example 117, N-[4-[8-amino-6-methyl-3-(trideuteriomethyl)imidazo[1,5-a]pyrazin-1-yl]-3-fluoro-phenyl]-2-[3-fluoro-5-(trifluoromethyl)phenyl]-2-hydroxy-acetamide] | 251 to 500 nM | 51 to 100 nM | 
[2H]C([2H])([2H])c1nc(-c2ccc(NC(=O)C(O)c3cccc(F)c3)cc2C)c2c(N)ncc(C(F)(F)F)n12 (centres unmarked) [Example 31, N-[4-[8-amino-3-(trideuteriomethyl)-5-(trifluoromethyl)imidazo[1,5-a]pyrazin-1-yl]-3-methyl-phenyl]-2-(3-fluorophenyl)-2-hydroxy-acetamide] | 251 to 500 nM | 1 to 25 nM | 
[2H]C([2H])([2H])c1nc(-c2ccc(NC(=O)C(O)c3cc(F)cc(C(F)(F)F)c3)cc2C)c2c(N)ncc(Cl)n12 (centres unmarked) [Example 57, N-[4-[8-amino-5-chloro-3-(trideuteriomethyl)imidazo[1,5-a]pyrazin-1-yl]-3-methyl-phenyl]-2-[3-fluoro-5-(trifluoromethyl)phenyl]-2-hydroxy-acetamide] | 26 to 50 nM | 1 to 25 nM | 
[2H]C([2H])([2H])c1nc(-c2ccc(NC(=O)C(O)c3cc(F)cc(C(F)(F)F)c3)c(F)c2F)c2c(N)nc(C)cn12 (centres unmarked) [Example 167, N-[4-[8-amino-6-methyl-3-(trideuteriomethyl)imidazo[1,5-a]pyrazin-1-yl]-2,3-difluoro-phenyl]-2-[3-fluoro-5-(trifluoromethyl)phenyl]-2-hydroxy-acetamide] | 101 to 250 nM | 26 to 50 nM | 
[2H]C([2H])([2H])c1nc(-c2ccc(NC(=O)C(O)c3cccc(F)c3)c(F)c2F)c2c(N)nc(C)cn12 (centres unmarked) [Example 130, N-[4-[8-amino-6-methyl-3-(trideuteriomethyl)imidazo[1,5-a]pyrazin-1-yl]-2,3-difluoro-phenyl]-2-(3-fluoro-phenyl)-2-hydroxy-acetamide] | 1 to 25 nM | 1 to 25 nM | 
Cc1cn2c(C)nc(-c3ccc(NC(=O)C(O)c4cccc(F)c4)c(F)c3F)c2c(N)n1 (centres unmarked) [Example 129, N-(4-(8-amino-3,6-dimethyl-imidazo[1,5-a]pyrazin-1-yl)-2,3-difluoro-phenyl)-2-(3-fluorophenyl)-2-hydroxyacetamide] | > 5000 nM | 501 to 1000 nM | 
Cc1cccc(C(O)C(=O)Nc2ccc(-c3nc(C)n4c(C)cnc(N)c34)c(F)c2)c1 (centres unmarked) [Example 89, N-(4-(8-amino-3,5-dimethylimidazo [1,5-a]pyrazin-1-yl)-3-fluoro-phenyl)-2-hydroxy-2-(m-tolyl)acetamide] | 51 to 100 nM | 1 to 25 nM | 
Cc1cc(NC(=O)C(O)c2cccc(F)c2)ccc1-c1nc(C)n2c(Cl)cnc(N)c12 (centres unmarked) [Example 29, N-(4-(8-amino-5-chloro-3-methylimidazo[1,5-a]pyrazin-1-yl)-3-methylphenyl)-2-(3-fluorophenyl)-2-hydroxyacetamide] | 26 to 50 nM | 1 to 25 nM | 
[2H]C([2H])([2H])c1nc(-c2cnc(NC(=O)C(O)c3cccc(C(F)(F)F)c3)cc2C)c2c(N)nc(C)cn12 (centres unmarked) [Example 183, N-[5-[8-amino-6-methyl-3-(trideuteriomethyl)imidazo[1,5-a]pyrazin-1-yl]-4-methyl-2-pyridyl]-2-hydroxy-2-[3-(tnfluoromethyl)phenyl]acetamide] | 2000 to 3000 nM | 251 to 500 nM | 
[2H]C([2H])([2H])c1nc(-c2ccc(NC(=O)C(O)c3cccc(Cl)c3)cc2F)c2c(N)ncc(C(F)(F)F)n12 (centres unmarked) [Example 83, N-[4-[8-amino-3-(trideuteriomethyl)-5-(trifluoromethyl)imidazo[1,5-a]pyrazin-1-yl]-3-fluoro-phenyl]-2-(3-chlorophenyl)-2-hydroxy-acetamide] | 51 to 100 nM | 1 to 25 nM | 
[2H]C([2H])([2H])c1nc(-c2ccc(NC(=O)C(O)c3cc(F)cc(F)c3)cc2C)c2c(N)ncc(Cl)n12 (centres unmarked) [Example 48, N-[4-[8-amino-5-chloro-3-(trideuteriomethyl)imidazo[1,5-a]pyrazin-1-yl]-3-methyl-phenyl]-2-(3,5-difluoro-phenyl)-2-hydroxy-acetamide] |  | 1 to 25 nM | 1 to 25 nM
[2H]C([2H])([2H])c1nc(-c2ccc(NC(=O)C(O)c3cc(F)cc(F)c3)c(F)c2F)c2c(N)ncc(Cl)n12 (centres unmarked) [Example 157, N-[4-[8-amino-5-chloro-3-(trideuteriomethyl)imidazo[1,5-a]pyrazin-1-yl]-2,3-difluoro-phenyl]-2-(3,5-difluorophenyl)-2-hydroxy-acetamide] | 51 to 100 nM | 1 to 25 nM | 
Cc1cc(NC(=O)C(O)c2cccc(F)c2)ccc1-c1nc(C)n2c(C)cnc(N)c12 (centres unmarked) [Example 8, N-(4-(8-amino-3,5-dimethylimidazo[1,5-a]pyrazin-1-yl)-3-methylphenyl)-2-(3-fluorophenyl)-2-hydroxyacetamide] | 26 to 50 nM | 1 to 25 nM | 
[2H]C([2H])([2H])c1nc(-c2ccc(NC(=O)C(O)c3cc(F)cc(F)c3)cc2F)c2c(N)ncc(C)n12 (centres unmarked) [Example 105, N-[4-[8-amino-5-methyl-3-(trideuteriomethyl)imidazo[1,5-a]pyrazin-1-yl]-3-fluoro-phenyl]-2-(3,5-difluoro-phenyl)-2-hydroxy-acetamide] | 26 to 50 nM | 1 to 25 nM | 
[2H]C([2H])([2H])c1nc(-c2ccc(NC(=O)C(O)c3cc(F)cc(F)c3)cc2F)c2c(N)nc(C)cn12 (centres unmarked) [Example 102, N-[4-[8-amino-6-methyl-3-(trideuteriomethyl)imidazo[1,5-a]pyrazin-1-yl]-3-fluoro-phenyl]-2-(3,5-difluoro-phenyl)-2-hydroxy-acetamide] | 1 to 25 nM | 1 to 25 nM | 
[2H]C([2H])([2H])c1nc(-c2ccc(NC(=O)C(O)c3cc(F)cc(C(F)(F)F)c3)cc2F)c2c(N)ncc(C(F)(F)F)n12 (centres unmarked) [Example 112, N-[4-[8-amino-3-(trideuteriomethyl)-5-(trifluoromethyl)imidazo[1,5-a]pyrazin-1-yl]-3-fluoro-phenyl]-2-[3-fluoro-5-(trifluoromethyl)phenyl]-2-hydroxy-acetamide] | 1 to 25 nM | 1 to 25 nM | 
